According to ChEMBL document CHEMBL1201862, “PubChem BioAssay data set” (2004):
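Assay format: 96-well plates, 48-hour exposure. Here, GI50 denotes the concentration required for 50% inhibition of growth.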 The source made the active and inactive calls. Cut-off read from the data, not from the text of the source: active = GI50 up to about 1.1 µM and inactive = higher.

Tests used:
Assay in all cases: growth of human tumour cells (NCI), 48 h
786-0 = system: 786-0
A549 = system: A549
COLO 205 = system: COLO 205
HOP-62 = system: HOP-62
HOP-92 = system: HOP-92
HT-29 = system: HT-29
Hs-578T = system: Hs-578T
LOX IMVI = system: LOX IMVI
M14 = system: M14
NCI-H460 = system: NCI-H460
NCI-H522 = system: NCI-H522
OVCAR-4 = system: OVCAR-4
PC-3 = system: PC-3
RPMI-8226 = system: RPMI-8226
SF-295 = system: SF-295
SK-MEL-5 = system: SK-MEL-5
SK-OV-3 = system: SK-OV-3
SNB-19 = system: SNB-19
SR = system: SR
SF-539 = system: SF-539

Compound	GI50 (786-0)	GI50 (A549)	GI50 (COLO 205)	GI50 (HOP-62)	GI50 (HOP-92)	GI50 (HT-29)	GI50 (Hs-578T)	GI50 (LOX IMVI)	GI50 (M14)	GI50 (NCI-H460)	GI50 (NCI-H522)	GI50 (OVCAR-4)	GI50 (PC-3)	GI50 (RPMI-8226)	GI50 (SF-295)	GI50 (SK-MEL-5)	GI50 (SK-OV-3)	GI50 (SNB-19)	GI50 (SR)	GI50 (SF-539)
Oc1ccccc1C(Sc1nc2ccccc2s1)Sc1nc2ccccc2s1	> 100 µM (inactive)	> 100 µM (inactive)	52.4 µM (inactive)	> 100 µM (inactive)	22.8 µM (inactive)	> 100 µM (inactive)	24.1 µM (inactive)	67.5 µM (inactive)	> 100 µM (inactive)	> 100 µM (inactive)	17.6 µM (inactive)	76.4 µM (inactive)	67.1 µM (inactive)	32.6 µM (inactive)	41.6 µM (inactive)	44 µM (inactive)	> 100 µM (inactive)	64.6 µM (inactive)	43.7 µM (inactive)	
C(=N\c1cc2cc(Sc3ccccc3)ccc2[nH]1)/c1ccccc1	> 12.5 µM (inactive)	0.0818 µM (active)		2.08 µM (inactive)	> 12.5 µM (inactive)	> 12.5 µM (inactive)	> 12.5 µM (inactive)	5.85 µM (inactive)	> 12.5 µM (inactive)		> 12.5 µM (inactive)	> 12.5 µM (inactive)	> 12.5 µM (inactive)	> 12.5 µM (inactive)	11 µM (inactive)	10.6 µM (inactive)		> 12.5 µM (inactive)	1.32 µM (inactive)	0.741 µM (active)
CC1OC(OC2C(OC3CCC4(C)C(CCC5(C)C4CC=C4C6CC(C)(C)CCC6(C(=O)O)CCC45C)C3(C)CO)OCC(O)C2O)C(O)C(O)C1O (configuration not stated)	30.7 µM (inactive)	19.1 µM (inactive)	20.8 µM (inactive)	29.6 µM (inactive)	10.1 µM (inactive)	15.5 µM (inactive)	14.1 µM (inactive)	11.1 µM (inactive)		19 µM (inactive)	13.3 µM (inactive)	11.8 µM (inactive)	13 µM (inactive)		15.1 µM (inactive)	17.8 µM (inactive)	18.1 µM (inactive)	15.8 µM (inactive)	3.33 µM (inactive)	15.5 µM (inactive)
Oc1ccc2ccccc2c1/N=N/c1ccc(Cl)cc1	34.6 µM (inactive)	> 100 µM (inactive)	53 µM (inactive)	> 100 µM (inactive)	> 100 µM (inactive)	> 100 µM (inactive)	> 100 µM (inactive)	24.8 µM (inactive)	> 100 µM (inactive)		> 100 µM (inactive)	> 100 µM (inactive)	> 100 µM (inactive)	> 100 µM (inactive)	> 100 µM (inactive)	> 100 µM (inactive)	> 100 µM (inactive)	> 100 µM (inactive)	39.5 µM (inactive)	
C=CCOc1ccc(C(/N=N\c2ccc(Cl)cc2)=N/NC(=O)c2ccccc2)cc1OC	> 100 µM (inactive)	> 100 µM (inactive)	85.3 µM (inactive)	> 100 µM (inactive)	32.1 µM (inactive)	52.7 µM (inactive)	73.1 µM (inactive)	48 µM (inactive)	73.5 µM (inactive)	36.1 µM (inactive)	41.3 µM (inactive)	76.7 µM (inactive)	49.5 µM (inactive)		> 100 µM (inactive)	29.9 µM (inactive)		> 100 µM (inactive)	> 100 µM (inactive)	
CC1(O)CC23CC(O)C4(O)C(CC(O)C4(C)C)C(C)(O)C2CCC1C3O (configuration not stated)	> 100 µM (inactive)	> 100 µM (inactive)	> 100 µM (inactive)		> 100 µM (inactive)	> 100 µM (inactive)	> 100 µM (inactive)	> 100 µM (inactive)	> 100 µM (inactive)	> 100 µM (inactive)	> 100 µM (inactive)	> 100 µM (inactive)	> 100 µM (inactive)		> 100 µM (inactive)	> 100 µM (inactive)	> 100 µM (inactive)	> 100 µM (inactive)	> 100 µM (inactive)	> 100 µM (inactive)
